In the NIST ThermoML archive (doi:10.1016/j.jct.2017.03.006):
± gives the expanded uncertainty stated by the source.

Experiments:
[1] = Liquid; for mass density: Vibrating tube method; for viscosity: Concentric cylinders viscometry
[2] = molar heat capacity at constant pressure; settings: Liquid, Flow calorimetry

Cc1ccc(C)c(C)c1 [1,2,4-trimethylbenzene]
Settings | mass density [kg/m3] | molar heat capacity at constant pressure [J/K/mol] | viscosity [mPa·s]
[1], 273.15 K, 100 kPa | 891.7 ± 0.7 | – | –
[1], 273.15 K, 1000 kPa | 892.3 ± 0.7 | – | –
[1], 273.15 K, 2000 kPa | 892.9 ± 0.7 | – | –
[1], 273.15 K, 5000 kPa | 894.6 ± 0.7 | – | –
[1], 273.15 K, 10000 kPa | 897.4 ± 0.7 | – | –
[1], 273.15 K, 15000 kPa | 900.2 ± 0.7 | – | –
[1], 273.15 K, 20000 kPa | 902.8 ± 0.7 | – | –
[1], 273.15 K, 30000 kPa | 908 ± 0.7 | – | –
[1], 273.15 K, 40000 kPa | 912.9 ± 0.7 | – | –
[1], 273.15 K, 50000 kPa | 917.5 ± 0.7 | – | –
[1], 273.15 K, 60000 kPa | 921.9 ± 0.7 | – | –
[1], 273.15 K, 70000 kPa | 926.2 ± 0.7 | – | –
[1], 273.15 K, 80000 kPa | 930.3 ± 0.8 | – | –
[1], 273.15 K, 90000 kPa | 934.2 ± 0.8 | – | –
[1], 273.15 K, 100000 kPa | 938 ± 0.8 | – | –
[1], 273.15 K, 110000 kPa | 941.7 ± 0.8 | – | –
[1], 273.15 K, 120000 kPa | 945.2 ± 0.8 | – | –
[1], 273.15 K, 130000 kPa | 948.6 ± 0.8 | – | –
[1], 273.15 K, 140000 kPa | 952 ± 0.8 | – | –
[1], 283.15 K, 100 kPa | 883.3 ± 0.7 | – | –
[1], 283.15 K, 1000 kPa | 883.9 ± 0.7 | – | –
[1], 283.15 K, 2000 kPa | 884.5 ± 0.7 | – | –
[1], 283.15 K, 5000 kPa | 886.3 ± 0.7 | – | –
[1], 283.15 K, 10000 kPa | 889.3 ± 0.7 | – | –
[1], 283.15 K, 15000 kPa | 892.2 ± 0.7 | – | –
[1], 283.15 K, 20000 kPa | 895 ± 0.7 | – | –
[1], 283.15 K, 30000 kPa | 900.3 ± 0.7 | – | –
[1], 283.15 K, 40000 kPa | 905.4 ± 0.7 | – | –
[1], 283.15 K, 50000 kPa | 910.2 ± 0.7 | – | –
[1], 283.15 K, 60000 kPa | 914.8 ± 0.7 | – | –
[1], 283.15 K, 70000 kPa | 919.3 ± 0.8 | – | –
[1], 283.15 K, 80000 kPa | 923.5 ± 0.8 | – | –
[1], 283.15 K, 90000 kPa | 927.5 ± 0.8 | – | –
[1], 283.15 K, 100000 kPa | 931.4 ± 0.8 | – | –
[1], 283.15 K, 110000 kPa | 935.2 ± 0.8 | – | –
[1], 283.15 K, 120000 kPa | 938.9 ± 0.8 | – | –
[1], 283.15 K, 130000 kPa | 942.4 ± 0.8 | – | –
[1], 283.15 K, 140000 kPa | 945.8 ± 0.8 | – | –
[1], 293.15 K, 100 kPa | 875.1 ± 0.7 | – | 0.888 ± 0.019
[1], 293.15 K, 1000 kPa | 875.7 ± 0.7 | – | –
[1], 293.15 K, 2000 kPa | 876.3 ± 0.7 | – | –
[1], 293.15 K, 5000 kPa | 878.2 ± 0.7 | – | –
[1], 293.15 K, 10000 kPa | 881.4 ± 0.7 | – | –
[1], 293.15 K, 15000 kPa | 884.4 ± 0.7 | – | –
[1], 293.15 K, 20000 kPa | 887.3 ± 0.7 | – | –
[1], 293.15 K, 30000 kPa | 892.9 ± 0.7 | – | –
[1], 293.15 K, 40000 kPa | 898.2 ± 0.7 | – | –
[1], 293.15 K, 50000 kPa | 903.2 ± 0.7 | – | –
[1], 293.15 K, 60000 kPa | 908 ± 0.8 | – | –
[1], 293.15 K, 70000 kPa | 912.6 ± 0.8 | – | –
[1], 293.15 K, 80000 kPa | 916.9 ± 0.8 | – | –
[1], 293.15 K, 90000 kPa | 921.1 ± 0.8 | – | –
[1], 293.15 K, 100000 kPa | 925.1 ± 0.8 | – | –
[1], 293.15 K, 110000 kPa | 929 ± 0.8 | – | –
[1], 293.15 K, 120000 kPa | 932.8 ± 0.8 | – | –
[1], 293.15 K, 130000 kPa | 936.4 ± 0.8 | – | –
[1], 293.15 K, 140000 kPa | 939.9 ± 0.8 | – | –
[1], 303.15 K, 100 kPa | 867 ± 0.7 | – | 0.779 ± 0.017
[1], 303.15 K, 1000 kPa | 867.6 ± 0.7 | – | –
[1], 303.15 K, 2000 kPa | 868.3 ± 0.7 | – | –
[1], 303.15 K, 5000 kPa | 870.3 ± 0.7 | – | –
[1], 303.15 K, 10000 kPa | 873.6 ± 0.7 | – | –
[1], 303.15 K, 15000 kPa | 876.8 ± 0.7 | – | –
[1], 303.15 K, 20000 kPa | 879.8 ± 0.7 | – | –
[1], 303.15 K, 30000 kPa | 885.7 ± 0.7 | – | –
[1], 303.15 K, 40000 kPa | 891.2 ± 0.7 | – | –
[1], 303.15 K, 50000 kPa | 896.4 ± 0.7 | – | –
[1], 303.15 K, 60000 kPa | 901.4 ± 0.8 | – | –
[1], 303.15 K, 70000 kPa | 906.1 ± 0.8 | – | –
[1], 303.15 K, 80000 kPa | 910.6 ± 0.8 | – | –
[1], 303.15 K, 90000 kPa | 914.9 ± 0.8 | – | –
[1], 303.15 K, 100000 kPa | 919.1 ± 0.8 | – | –
[1], 303.15 K, 110000 kPa | 923.1 ± 0.8 | – | –
[1], 303.15 K, 120000 kPa | 927 ± 0.8 | – | –
[1], 303.15 K, 130000 kPa | 930.7 ± 0.8 | – | –
[1], 303.15 K, 140000 kPa | 934.3 ± 0.8 | – | –
[1], 313.15 K, 100 kPa | 859 ± 0.7 | – | 0.692 ± 0.015
[1], 313.15 K, 1000 kPa | 859.7 ± 0.7 | – | –
[1], 313.15 K, 2000 kPa | 860.4 ± 0.7 | – | –
[1], 313.15 K, 5000 kPa | 862.6 ± 0.7 | – | –
[1], 313.15 K, 10000 kPa | 866 ± 0.7 | – | –
[1], 313.15 K, 15000 kPa | 869.3 ± 0.7 | – | –
[1], 313.15 K, 20000 kPa | 872.6 ± 0.7 | – | –
[1], 313.15 K, 30000 kPa | 878.7 ± 0.7 | – | –
[1], 313.15 K, 40000 kPa | 884.5 ± 0.7 | – | –
[1], 313.15 K, 50000 kPa | 889.9 ± 0.8 | – | –
[1], 313.15 K, 60000 kPa | 895 ± 0.8 | – | –
[1], 313.15 K, 70000 kPa | 899.9 ± 0.8 | – | –
[1], 313.15 K, 80000 kPa | 904.6 ± 0.8 | – | –
[1], 313.15 K, 90000 kPa | 909 ± 0.8 | – | –
[1], 313.15 K, 100000 kPa | 913.3 ± 0.8 | – | –
[1], 313.15 K, 110000 kPa | 917.4 ± 0.8 | – | –
[1], 313.15 K, 120000 kPa | 921.4 ± 0.8 | – | –
[1], 313.15 K, 130000 kPa | 925.2 ± 0.8 | – | –
[1], 313.15 K, 140000 kPa | 928.9 ± 0.8 | – | –
[1], 323.15 K, 100 kPa | 851.3 ± 0.7 | – | 0.62 ± 0.014
[1], 323.15 K, 1000 kPa | 852 ± 0.7 | – | –
[1], 323.15 K, 2000 kPa | 852.7 ± 0.7 | – | –
[1], 323.15 K, 5000 kPa | 855 ± 0.7 | – | –
[1], 323.15 K, 10000 kPa | 858.6 ± 0.7 | – | –
[1], 323.15 K, 15000 kPa | 862.1 ± 0.7 | – | –
[1], 323.15 K, 20000 kPa | 865.5 ± 0.7 | – | –
[1], 323.15 K, 30000 kPa | 871.9 ± 0.7 | – | –
[1], 323.15 K, 40000 kPa | 877.9 ± 0.7 | – | –
[1], 323.15 K, 50000 kPa | 883.5 ± 0.8 | – | –
[1], 323.15 K, 60000 kPa | 888.9 ± 0.8 | – | –
[1], 323.15 K, 70000 kPa | 894 ± 0.8 | – | –
[1], 323.15 K, 80000 kPa | 898.8 ± 0.8 | – | –
[1], 323.15 K, 90000 kPa | 903.4 ± 0.8 | – | –
[1], 323.15 K, 100000 kPa | 907.8 ± 0.8 | – | –
[1], 323.15 K, 110000 kPa | 912 ± 0.8 | – | –
[1], 323.15 K, 120000 kPa | 916.1 ± 0.8 | – | –
[1], 323.15 K, 130000 kPa | 920 ± 0.8 | – | –
[1], 323.15 K, 140000 kPa | 923.8 ± 0.8 | – | –
[1], 333.15 K, 100 kPa | 843.6 ± 0.7 | – | 0.562 ± 0.012
[1], 333.15 K, 1000 kPa | 844.4 ± 0.7 | – | –
[1], 333.15 K, 2000 kPa | 845.2 ± 0.7 | – | –
[1], 333.15 K, 5000 kPa | 847.6 ± 0.7 | – | –
[1], 333.15 K, 10000 kPa | 851.4 ± 0.7 | – | –
[1], 333.15 K, 15000 kPa | 855.1 ± 0.7 | – | –
[1], 333.15 K, 20000 kPa | 858.6 ± 0.7 | – | –
[1], 333.15 K, 30000 kPa | 865.3 ± 0.7 | – | –
[1], 333.15 K, 40000 kPa | 871.6 ± 0.8 | – | –
[1], 333.15 K, 50000 kPa | 877.4 ± 0.8 | – | –
[1], 333.15 K, 60000 kPa | 883 ± 0.8 | – | –
[1], 333.15 K, 70000 kPa | 888.2 ± 0.8 | – | –
[1], 333.15 K, 80000 kPa | 893.2 ± 0.8 | – | –
[1], 333.15 K, 90000 kPa | 898 ± 0.8 | – | –
[1], 333.15 K, 100000 kPa | 902.5 ± 0.8 | – | –
[1], 333.15 K, 110000 kPa | 906.9 ± 0.8 | – | –
[1], 333.15 K, 120000 kPa | 911.1 ± 0.8 | – | –
[1], 333.15 K, 130000 kPa | 915.1 ± 0.8 | – | –
[1], 333.15 K, 140000 kPa | 919 ± 0.8 | – | –
[2], 293.15 K, 100 kPa | – | 216.2 ± 3 | –
[2], 293.15 K, 5000 kPa | – | 215 ± 3 | –
[2], 293.15 K, 10000 kPa | – | 213.3 ± 3 | –
[2], 293.15 K, 15000 kPa | – | 212.5 ± 3 | –
[2], 293.15 K, 20000 kPa | – | 210.8 ± 3 | –
[2], 293.15 K, 25000 kPa | – | 209.8 ± 3 | –
[2], 313.15 K, 100 kPa | – | 222.5 ± 3.1 | –
[2], 313.15 K, 5000 kPa | – | 221.2 ± 3.1 | –
[2], 313.15 K, 10000 kPa | – | 219.6 ± 3.1 | –
[2], 313.15 K, 15000 kPa | – | 218.5 ± 3.1 | –
[2], 313.15 K, 20000 kPa | – | 217.7 ± 3.1 | –
[2], 313.15 K, 25000 kPa | – | 217.1 ± 3.1 | –
[2], 333.15 K, 100 kPa | – | 229.2 ± 3.2 | –
[2], 333.15 K, 5000 kPa | – | 227.9 ± 3.2 | –
[2], 333.15 K, 10000 kPa | – | 227.1 ± 3.2 | –
[2], 333.15 K, 15000 kPa | – | 225.9 ± 3.2 | –
[2], 333.15 K, 20000 kPa | – | 224.8 ± 3.2 | –
[2], 333.15 K, 25000 kPa | – | 223.5 ± 3.1 | –
